Results as given in patent publication US20240402608A1, “METHOD FOR NON-INVASIVE PRODUCTION OF DEFINED STRUCTURES INSIDE COMPARTMENTS AND COMPARTMENT” (MAX-PLANCK-GESELLSCHAFT ZUR FÖRDERUNG DER WISSENSCHAFTEN …, priority 2021, published 2024).
{Atto647N} = Atto 647N fluorescent dye

Columns and labels:
[1] = Influx of fluorophore or ssDNA into GUVs with and without printed pore, confocal imaging; format: physicochemical; conditions: for influx into GUV containing a printed pore: GUV with printed hydrogel pore
Experimental: Representative confocal images of two adjacent GUVs (red, λex=488 nm) in the xy-(left) and an xz-plane (right, as indicated by white dashed line) are shown in FIG. 11c. […] The scalebar in the image of the xy-plane represents 20 μm.
Further representative confocal images of two adjacent GUVs, similar as described in FIG. 11c, are shown in FIG. 11d. […] The scalebar in the image of the xy-plane represents 20 μm.
Next, it was tested if the pores can transport larger and charged molecular cargo.
0.01 mg ml-1 Rhodamine B acrylate were added to the final solution for fluorescence microscopy.

[2] = Membrane permeability via fraction of successful printing attempts inside GUVs over time; conditions: not told
Experimental: The membrane permeability was determined by adding the respective components after incubation of the GUVs with the remaining components of the photoresist and quantifying the fraction of successful printing attempts, Nprint/Ntot, inside the GUVs over time (n=30 for each condition and time point). An exponential fit (black line) was used to determine the point in time of 50% success rate.
The resist was polymerized inside the GUV by two-photon 3D laser printing. […] The printing success rate was used as an indirect way to determine the membrane permeability of the non-fluorescent components. For this purpose, PEGDA or LAP was added to GUVs that were pre-incubated with the other resist components. Subsequently, the fraction of successful printing attempts, Npol/Ntot, was quantified for 30 GUVs per time point over the course of up to 100 minutes.
We use the interdependence of the permeability and the concentration inside of a GUV Cin [1] to determine the membrane permeability P via printing attempts:
where R is the GUV radius, Cout the concentration outside of the GUV and t the time.

| Molecule | influx into GUV containing a printed pore [1] | influx into GUV containing a printed pore ([1]; listed as single-stranded DNA) | influx into adjacent GUV without printed pore ([1]; GUV without pore) | Papp at 12 mg mL-1 [2] [×10⁻⁶ cm/s] |
| --- | --- | --- | --- | --- |
| 5′-Atto 647N TTTTTTAATTTTT 3′ (DNA, 5' {Atto647N}, backbone not given here) [13 base-long single-stranded DNA, 13 base-long single-stranded DNA labelled with Atto647N] | can diffuse into the GUV across the printed pore | influx | does not show DNA import | – |
| Cc1cc(C)c(C(=O)P(=O)([O-])c2ccccc2)c(C)c1.[Li+] [LAP, Lithium phenyl-2,4,6-trimethylbenzoylphosphinate] | – | – | – | 0.0987 ± 0.0325 |
